Some results are limits rather than exact numbers.

For one assay, the target named is T1, pY705-STAT3 in PBMC (Homo sapiens, UniProt P40763).
T1 construct: Cryopreserved Peripheral Blood Mononuclear Cells (PBMC) are from AllCells; host or cells: cryopreserved PBMC
T1 sequence (P40763 whole entry): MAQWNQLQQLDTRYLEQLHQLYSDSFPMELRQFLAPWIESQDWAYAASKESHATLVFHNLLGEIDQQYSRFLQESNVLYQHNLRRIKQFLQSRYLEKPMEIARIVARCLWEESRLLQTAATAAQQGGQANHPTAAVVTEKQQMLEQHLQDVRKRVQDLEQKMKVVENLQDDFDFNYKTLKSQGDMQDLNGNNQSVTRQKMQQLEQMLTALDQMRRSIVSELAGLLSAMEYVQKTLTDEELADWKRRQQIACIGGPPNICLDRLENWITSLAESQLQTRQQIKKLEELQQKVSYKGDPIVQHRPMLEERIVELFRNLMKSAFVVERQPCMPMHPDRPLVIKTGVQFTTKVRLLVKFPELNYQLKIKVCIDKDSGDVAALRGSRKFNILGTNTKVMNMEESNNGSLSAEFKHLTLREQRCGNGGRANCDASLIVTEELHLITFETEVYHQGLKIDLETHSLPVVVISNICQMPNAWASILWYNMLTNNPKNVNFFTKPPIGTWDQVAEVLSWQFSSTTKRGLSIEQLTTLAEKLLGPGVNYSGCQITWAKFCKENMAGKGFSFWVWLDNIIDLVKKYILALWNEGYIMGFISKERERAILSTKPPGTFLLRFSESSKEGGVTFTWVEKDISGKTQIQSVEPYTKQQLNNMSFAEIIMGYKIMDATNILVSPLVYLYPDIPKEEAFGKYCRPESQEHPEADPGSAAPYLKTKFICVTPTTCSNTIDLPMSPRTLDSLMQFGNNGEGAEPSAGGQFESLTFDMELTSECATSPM
Nature of the assay: MSD-pSTAT-PBMC Assay (pSTAT3, IL-6 stimulated). It counts as cell-based. The conditions noted are these: PBMC, compound 3 hrs, then 10 ng/mL IL-6 for 10 min; Table 115; read-out: STAT3. In outline:
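Thawed human PBMC rested overnight in IMDM/10% FBS, then got compound for 3 hrs before a 10 min cytokine pulse: 1 ng/mL IL-4 for pSTAT6, 10 ng/mL IL-6 for pSTAT3. Lysates went to MSD sandwich capture on total STAT6 or STAT3 with phospho-specific detection. IC50 came from background-subtracted, DMSO-normalized signal.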
As to `CCCOC(=O)[C@H](C)N[P@](=O)(Oc1ccccc1)[C@@H](F)c1ccc2sc(C(=O)N[C@H]3CCC[C@H]4CC[C@@H](C(=O)N5CC(c6cnccc6N6CCOCC6)C5)N4C3=O)cc2c1` (single isomer, unassigned) [Compound 1047], the IC50 lay within 100 to 1000 nM.

`CCCCOC(=O)[C@@H]1CCCN1P(=O)(Oc1ccccc1)C(F)(F)c1ccc2sc(C(=O)N[C@H]3CCC[C@H]4CC[C@@H](C(=O)N5CC(c6cccnc6)C5)N4C3=O)cc2c1` (stereo partly drawn) [Compound 969, butyl ((difluoro(2-(((3S,6S,9aS)-5-oxo-3-(3-(pyridin-3-yl)azetidine-1-carbonyl)octahydro-1H-pyrrolo[1,2-a]azepin-6-yl)carbamoyl)benzo [b]thiophen-5-yl)methyl)(phenoxy)phosphoryl)-L-prolinate]: the IC50 is > 3000 nM.

Consider `CC(C)CC(=O)SCCOP(=O)(OCOC(=O)O[C@H]1CCOC1)C(F)(F)c1ccc2sc(C(=O)N[C@H]3CCC[C@H]4CC[C@@H](C(=O)N5CC(c6ncccn6)C5)N4C3=O)cc2c1` (stereo partly drawn) [Compound 1099, S-(2-(((difluoro(2-(((3S,6S,9aS)-5-oxo-3-(3-(pyrimidin-2-yl)azetidine-1-carbonyl)octahydro-1H-pyrrolo[1,2-a]azepin-6-yl)carbamoyl)benzo [b]thiophen-5-yl)methyl)((((((S)-tetrahydrofuran-3-yl)oxy)carbonyl)oxy)methoxy)phosphoryl)oxy)ethyl) 3-methylbutanethioate], for which the IC50 was < 100 nM.

A further assay concerns the target T2, pY641-STAT6 in PBMC (Homo sapiens, UniProt P42226).
T2 construct: Cryopreserved Peripheral Blood Mononuclear Cells (PBMC) are from AllCells; host or cells: cryopreserved PBMC
T2 sequence (P42226 1-847): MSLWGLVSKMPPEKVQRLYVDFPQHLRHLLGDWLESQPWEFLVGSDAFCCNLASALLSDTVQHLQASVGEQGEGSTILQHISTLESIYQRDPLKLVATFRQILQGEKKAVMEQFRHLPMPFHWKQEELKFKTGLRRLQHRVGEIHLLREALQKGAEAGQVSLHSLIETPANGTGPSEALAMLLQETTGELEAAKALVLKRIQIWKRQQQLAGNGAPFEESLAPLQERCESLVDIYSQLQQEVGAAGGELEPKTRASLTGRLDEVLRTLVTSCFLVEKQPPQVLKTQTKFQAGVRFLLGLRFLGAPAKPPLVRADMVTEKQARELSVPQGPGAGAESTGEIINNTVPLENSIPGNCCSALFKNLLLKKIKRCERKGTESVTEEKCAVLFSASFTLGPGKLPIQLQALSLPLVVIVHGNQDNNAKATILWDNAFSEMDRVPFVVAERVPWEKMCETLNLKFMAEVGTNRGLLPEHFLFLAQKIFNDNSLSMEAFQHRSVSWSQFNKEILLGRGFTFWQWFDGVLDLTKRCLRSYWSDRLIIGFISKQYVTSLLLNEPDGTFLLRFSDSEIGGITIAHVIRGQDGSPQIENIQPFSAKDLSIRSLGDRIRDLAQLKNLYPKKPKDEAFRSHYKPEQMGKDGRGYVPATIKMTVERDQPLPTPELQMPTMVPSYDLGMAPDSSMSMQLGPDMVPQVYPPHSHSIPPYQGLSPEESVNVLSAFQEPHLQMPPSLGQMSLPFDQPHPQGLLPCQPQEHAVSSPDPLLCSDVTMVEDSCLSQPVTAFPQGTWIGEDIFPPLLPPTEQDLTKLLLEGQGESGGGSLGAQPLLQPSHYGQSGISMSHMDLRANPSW
Nature of the assay: MSD-pSTAT-PBMC Assay (pSTAT6, IL-4 stimulated). The class given is cell-based. The conditions noted are these: STAT6, PBMC, compound 3 hrs, then 1 ng/mL IL-4 for 10 min; Table 115. From the text:
Cryopreserved Peripheral Blood Mononuclear Cells (PBMC) are from AllCells. Recombinant Human IL-4 and IL-6 are from Peprotech. Mouse monoclonal anti-STAT3 antibody, rabbit monoclonal anti-pY705-STAT3 antibody, rabbit monoclonal Anti-pY641-STAT6 antibody, and lysis buffer are from Cell Signaling Technology (CST). Mouse monoclonal anti-STAT6 antibody is from BioLegend. Assay plates, blocker, and anti-rabbit secondary antibody are from Meso Scale Discovery (MSD).
Cyropreserved PBMCs were thawed out and allowed to recover overnight in IMDM+10% heat-inactivated FBS prior to plating 50,000 (STAT3) or 25,000 (STAT6) cells per well in 96-well U-bottom tissue culture plates. Cells were treated with compound for 3 hrs, then stimulated with 10 ng/mL IL-6 (STAT3) or 1 ng/mL IL-4 (STAT6) for 10 min. Cells were then spun down and washed with ice-cold PBS prior to lysing the cell pellet with 1× lysis buffer (CST) with 1× HALT protease and phosphatase inhibitor cocktail (Thermo). Lysates were transferred to and incubated overnight at 4° C. with shaking in QuickPlex 96-well high bind assay plates (MSD) pre-coated overnight with 30 μL per well of 0.6 μg/mL mouse monoclonal anti-STAT3 antibody (STAT3) or 2 μg/mL mouse monoclonal anti-STAT6 antibody (STAT6) in 1× PBS, and pre-blocked for 1 hour with 3% Blocker-A (MSD). Captured protein in the assay plates were then washed and probed with 25 μL per well of […] rabbit monoclonal anti-pY705-STAT3 antibody (STAT3) or 0.18 μg/ml rabbit monoclonal Anti-pY641-STAT6 antibody (STAT6) in 1% Blocker-A for 1 hour at room temperature with shaking, then washed and probed with 25 ul per well of 1 ug/ml Sulfo-TAG Labeled Goat Anti-Rabbit Antibody (MSD) in 1% Blocker-A for 1 hour at room temperature with shaking. Assay plates were then washed and 150 μL of 1× Read Buffer-T (MSD) was added to each well prior to reading on an SQ120 MSD Plate Reader. Assay signal from each sample was subtracted by the signal from unstimulated control wells and normalized to DMSO control wells. IC50 values were calculated using Graph Pad Prism Dose-Response Nonlinear Regression with variable slope. For both pSTAT3 and pSTAT6 A=≤100 nM; B 100-1000 nM; C=>1000-3000 nM; D=>3 μM; and NT=Not Tested.
In turn, `CCCOC(=O)[C@H](C)NP(=O)(Oc1ccccc1)C(F)c1ccc2sc(C(=O)N[C@H]3CCCC[C@H]4CC[C@@H](C(=O)N5CC(c6ccn(C)c(=O)c6)CC56CC6)N4C3=O)cc2c1` (stereo partly drawn) [Compound 449, propyl ((fluoro(2-(((3S,6S,10aS)-3-(6-(1-methyl-2-oxo-1,2-dihydropyridin-4-yl)-4-azaspiro[2.4]heptane-4-carbonyl)-5-oxodecahydropyrrolo [1,2-a]azocin-6-yl)carbamoyl)benzo [b]thiophen-5-yl)methyl)(phenoxy)phosphoryl)-L-alaninate] yielded an IC50 of 100 to 1000 nM.

In the case of `C[C@H](NP(=O)(Cc1ccc2ccc(C(=O)N[C@H]3CCCC[C@H]4CC[C@@H](C(=O)N5CC(c6ccccc6)CC56CC6)N4C3=O)cc2c1)Oc1ccccc1)C(=O)OCC(C)(C)C` (stereo partly drawn) [Compound 436, neopentyl (((7-(((3S,6S,10aS)-5-oxo-3-(6-phenyl-4-azaspiro[2.4]heptane-4-carbonyl)decahydropyrrolo[1,2-a]azocin-6-yl)carbamoyl)naphthalen-2-yl)methyl)(phenoxy)phosphoryl)-L-alaninate], the IC50 was > 3000 nM.

`COCCOC(=O)[C@H](C)NP(=O)(Oc1ccccc1)[C@@H](F)c1ccc2sc(C(=O)N[C@H]3CCC[C@H]4CC[C@@H](C(=O)N5C[C@@H](c6ccccc6)[C@H](C#N)C56CC6)N4C3=O)cc2c1` (stereo partly drawn) [Compound 361, 2-methoxyethyl (((R)-(2-(((3S,6S,9aS)-3-((6R,7S)-7-cyano-6-phenyl-4-azaspiro[2.4]heptane-4-carbonyl)-5-oxooctahydro-1H-pyrrolo[1,2-a]azepin-6-yl)carbamoyl)benzo [b]thiophen-5-yl)fluoromethyl) (phenoxy)phosphoryl)-L-alaninate]: the IC50 is < 100 nM.

With `CCCOC(=O)[C@H](C)NP(=O)(Oc1ccccc1)[C@@H](F)c1ccc2sc(C(=O)N[C@H]3CCCC[C@H]4CC[C@@H](C(=O)N5C(=O)N(c6cncc(C(F)(F)F)c6)C(=O)C56CC6)N4C3=O)cc2c1` (stereo partly drawn) [Compound 330, propyl (((R)-(2-(((3S,6S,10aS)-3-(5,7-dioxo-6-(5-(trifluoromethyl)pyridin-3-yl)-4,6-diazaspiro[2.4]heptane-4-carbonyl)-5-oxodecahydropyrrolo [1,2-a]azocin-6-yl)carbamoyl)benzo [b]thiophen-5-yl)fluoromethyl) (phenoxy)phosphoryl)-L-alaninate], the IC50 is > 3000 nM.

`C[C@H](NP(=O)(Oc1ccccc1)[C@@H](F)c1ccc2sc(C(=O)N[C@H]3CCCC[C@H]4CC[C@@H](C(=O)N5C[C@@H](c6cccnc6)CC56CC6)N4C3=O)cc2c1)C(=O)OCC(C)(C)C` (stereo partly drawn) [Compound 477, neopentyl (((R)-fluoro(2-(((3S,6S,10aS)-5-oxo-3-((R)-6-(pyridin-3-yl)-4-azaspiro[2.4]heptane-4-carbonyl)decahydropyrrolo[1,2-a]azocin-6-yl)carbamoyl)benzo [b]thiophen-5-yl)methyl)(phenoxy)phosphoryl)-L-alaninate]: the IC50 is < 100 nM.

For `CCCOC(=O)[C@H](C)NP(=O)(Oc1ccccc1)[C@H](F)c1ccc2sc(C(=O)N[C@H]3C[C@@H](C)C[C@H]4CC[C@@H](C(=O)N5C[C@H](c6ccccc6)[C@@H](C#N)C56CC6)N4C3=O)cc2c1` (stereo partly drawn) [Compound 349, propyl (((S)-(2-(((3S,6S,8R,9aR)-3-((6S,7R)-7-cyano-6-phenyl-4-azaspiro[2.4]heptane-4-carbonyl)-8-methyl-5-oxooctahydro-1H-pyrrolo[1,2-a]azepin-6-yl)carbamoyl)benzo [b]thiophen-5-yl)fluoromethyl) (phenoxy)phosphoryl)-L-alaninate], the IC50 is < 100 nM.

For the molecule `CCCOC(=O)[C@H](C)NP(=O)(Oc1ccccc1)C(F)c1ccc2sc(C(=O)N[C@H]3CCCC[C@H]4CC[C@@H](C(=O)N5C(=O)N(c6ccn(C)c(=O)c6)C(=O)C56CC6)N4C3=O)cc2c1` (stereo partly drawn) [Compound 977, propyl ((fluoro(2-(((3S,6S,10aS)-3-(6-(1-methyl-2-oxo-1,2-dihydropyridin-4-yl)-5,7-dioxo-4,6-diazaspiro[2.4]heptane-4-carbonyl)-5-oxodecahydropyrrolo [1,2-a]azocin-6-yl)carbamoyl)benzo [b]thiophen-5-yl)methyl)(phenoxy)phosphoryl)-L-alaninate], the IC50 lay in the range of 100 to 1000 nM.

In the case of `CCCOC(=O)[C@H](C)NP(=O)(Oc1ccccc1)[C@@H](F)c1ccc2sc(C(=O)N[C@H]3CCCC[C@H]4CC[C@@H](C(=O)N5C(=O)N(c6ccc(OC)nc6)C(=O)C56CC6)N4C3=O)cc2c1` (stereo partly drawn) [Compound 329, propyl (((R)-fluoro(2-(((3S,6S,10aS)-3-(6-(6-methoxypyridin-3-yl)-5,7-dioxo-4,6-diazaspiro[2.4]heptane-4-carbonyl)-5-oxodecahydropyrrolo [1,2-a]azocin-6-yl)carbamoyl)benzo [b]thiophen-5-yl)methyl)(phenoxy)phosphoryl)-L-alaninate], the IC50 was > 3000 nM.

Consider `CCCOC(=O)[C@H](C)NP(=O)(Oc1ccccc1)C(F)c1ccc2ccc(C(=O)N[C@H]3CCCC[C@H]4CC[C@@H](C(=O)N5C[C@H](c6ccn(C)c(=O)c6)CC56CC6)N4C3=O)cc2c1` (stereo partly drawn) [Compound 443, propyl ((fluoro(7-(((3S,6S,10aS)-3-((S)-6-(1-methyl-2-oxo-1,2-dihydropyridin-4-yl)-4-azaspiro[2.4]heptane-4-carbonyl)-5-oxodecahydropyrrolo [1,2-a]azocin-6-yl)carbamoyl)naphthalen-2-yl)methyl)(phenoxy)phosphoryl)-L-alaninate], for which the IC50 is 100 to 1000 nM.

(Values after patent US20250215029A1 (Recludix Pharma, Inc., priority 2022, published 2025).)
